Structures are written as SMILES. Bounds are passed on as bounds.

The test system of series [1] is HDAC (HeLa nuclear extract). Put plainly: HDAC fluorimetric assay (inhibition of HDAC enzymatic activity). The series is classed as biochemical. Conditions: HDAC fluorimetric assay kit. The protocol:
(c) An In Vitro Assay which Determines the Ability of a Test Compound to Inhibit HDAC Enzymatic Activity.
HDAC inhibitors were screened using an HDAC fluorimetric assay kit (AK-500, Biomol, Plymouth Meeting, Pa.). Test compounds were dissolved in dimethylsulphoxide (DMSO) to give a 20 mM working stock concentration. Fluorescence was measured on a WALLAC Victor 2 plate reader and reported as relative fluorescence units (RFU). Data were plotted using GraphPad Prism (v4.0a) and IC50's calculated using a sigmoidal dose response curve fitting algorithm. Each assay was setup as follows: Defrosted all kit components and kept on ice until use. Diluted HeLa nuclear extract 1:29 in Assay Buffer (50 mM Tris/Cl, pH 8.0, 137 mM NaCl, 2.7 mM KCl, 1 mM MgCl2). Prepared dilutions of Trichostatin A (TSA, positive control) and tested compounds in assay buffer (5× of final concentration). Diluted Fluor de Lys™ Substrate in assay buffer to 100 uM (50 fold=2× final). Diluted Fluor de Lys™ developer concentrate 20-fold (e.g. 50 μl plus 950 μl Assay Buffer) in cold assay buffer. Second, diluted the 0.2 mM Trichostatin A 100-fold in the 1× Developer (e.g. 10 μl in 1 ml; final Trichostatin A concentration in the 1× Developer=2 μM; final concentration after addition to HDAC/Substrate reaction=1 μM). Added Assay buffer, diluted trichostatin A or test inhibitor to appropriate wells of the microtiter plate. Added diluted HeLa extract or other HDAC sample to all wells except for negative controls. Allowed diluted Fluor de Lys™ Substrate and the samples in the microtiter plate to equilibrate to assay temperature (e.g. 25 or 37° C. Initiated HDAC reactions by adding diluted substrate (25 μl) to each well and mixing thoroughly. Allowed HDAC reactions to proceed for 1 hour and then stopped them by addition of Fluor de Lys™ Developer (50 μl). Incubated plate at room temperature (25° C.) for 10-15 min. Read samples in a microtiter-plate reading fluorimeter capable of excitation at a wavelength in the range 350-380 nm and detection of emitted light in the range 440-460 nm.

The target of the next series is T1, HSP90 (Homo sapiens, UniProt P07900).
T1 construct: purchased Assay Design SPP-776F
Put plainly: HSP90 assay (chaperone luciferase refolding / competition binding fluorescence polarization). Conditions: Table B does not say which of the two described. The protocol:
(a) An In Vitro Assay which Determines the Ability of a Test Compound to Inhibit Hsp90 Chaperone Activity.
The Hsp90 chaperone assay was performed to measure the ability of HSP90 protein to refold the heat-denatured luciferase protein. HSP90 was first incubated with different concentrations of test compounds in denaturation buffer (25 mM Tris, pH7.5, 8 mM MgSO4, 0.01% bovine gamma globulin and 10% glycerol) at room temperature for 30 min. Luciferase protein was added to denaturation mix and incubated at 50° C. for 8 min. The final concentration of HSP90 and luciferase in denaturation mixture were 0.375 μM and 0.125 μM respectively. A 5 μl sample of the denatured mix was diluted into 25 μl of renaturation buffer (25 mM Tris, pH7.5, 8 mM MgSO4, 0.01% bovine gamma globulin and 10% glycerol, 0.5 mM ATP, 2 mM DTT, 5 mM KCl, 0.3 μM HSP70 and 0.15 μM HSP40). The renaturation reaction was incubated at room temperature for 150 min, followed by dilution of 10 μl of the renatured sample into 90 μl of luciferin reagent (Luclite, PerkinElmer Life Science). The mixture was incubated at dark for 5 min before reading the luminescence signal on a TopCount plate reader (PerkinElmer Life Science).
(b) HSP90 Competition Binding (Fluorescence Polarization) Assay.
A fluorescein isothiocyanate (FITC) labeled GM was purchase from InvivoGen (ant-fgl-1). The interaction between HSP90 and labeled GM forms the basis for the fluorescence polarization assay. A free and fast-tumbling FITC labeled GM emits random light with respect to the plane of polarization plane of excited light, resulting in a lower polarization degree (mP) value. When GM is bound to HSP90, the complex tumble slower and the emitted light is polarized, resulting in a higher mP value. This competition binding assay was performed in 96-well plate and with each assay contained 10 and 50 nM of labeled GM and purified HSP90 protein (Assay Design, SPP-776F) respectively. The assay buffer contained 20 mM HEPES (pH 7.3), 50 mM KCl, 1 mM DTT, 50 mM MgCl2, 20 mM Na2MoO4, 0.01% NP40 with 0.1 mg/ml bovine gamma-globulin. Compounds are diluted in DMSO and added to the final assay before labeled GM with concentration range from 20 uM to 2 nM. mP value was determined by BioTek Synergy II with background subtraction after 24 hours of incubation at 4° C.

Consider `CC(C)c1cc(-c2onc(C(=O)NCCCCCCC(=O)NO)c2-c2ccc(CN3CCOCC3)cc2)c(O)cc1O` [Compound 28, 5-(2,4-Dihydroxy-5-isopropylphenyl)-N-(7-(hydroxyamino)-7-oxoheptyl)-4-(4-(morpholinomethyl)phenyl)isoxazole-3-carboxamide], for which the melting point (in general, the temperature, or range, at which the solid turns liquid) is 109 to 111 °C. In addition, the IC50 (as a rule, the concentration needed to halve the response being measured) in series [1] was not above 100 nM. Besides, the IC50 on HSP90 was not above 100 nM.

Consider `CCNC(=O)c1noc(-c2cc(C(C)C)c(O)cc2O)c1-c1ccc(CN(C)CCCCCCC(=O)NO)cc1` [Compound 24, 5-(2,4-Dihydroxy-5-isopropylphenyl)-N-ethyl-4-(4-(((7-(hydroxyamino)-7-oxoheptyl)(methyl)amino)methyl)phenyl)isoxazole-3-carboxamide], for which the melting point fell in the range of 118 to 119 °C. Moreover, the IC50 in series [1] was 100 to 1000 nM. At HSP90, the IC50 was not above 100 nM.

For `COc1ccc(-c2c(C(=O)NCC3CCN(c4ncc(C(=O)NO)cn4)CC3)noc2-c2cc(Cl)c(O)cc2O)cc1` [Compound 13, 5-(5-Chloro-2,4-dihydroxyphenyl)-N-((1-(5-(hydroxycarbamoyl)pyrimidin-2-yl)piperidin-4-yl)methyl)-4-(4-methoxyphenyl)isoxazole-3-carboxamide], the melting point was 148 to 151 °C. The same molecule came in with an IC50 in series [1] not above 100 nM. In addition, at HSP90, the IC50 lay in the range of 100 to 1000 nM.

Turning to `CCNC(=O)c1noc(-c2cc(C(C)C)c(O)cc2O)c1-c1ccc(CNCCC(=O)NO)cc1` [Compound 15, 5-(2,4-dihydroxy-5-isopropylphenyl)-N-ethyl-4-(4-((3-(hydroxyamino)-3-oxopro-pylamino)methyl)phenyl)isoxazole-3-carboxamide], the melting point is 146 to 148 °C. The molecule also had an IC50 in series [1] of 1000 to 10000 nM. Besides, the IC50 at HSP90 is not above 100 nM.

The values are drawn from patent US20090076006A1, “HSP90 INHIBITORS CONTAINING A ZINC BINDING MOIETY” (priority 2007, published 2009).
